According to ChEMBL document CHEMBL4425147, “Preparation, biological evaluation and molecular docking study of imidazolyl dihydropyrimidines as potential Mycobacterium tuberculosis dihydrofolate reductase inhibitors” (Bioorg Med Chem Lett, 2016):
Values after ≈ are worked out from the molar mass of the structure shown.

Key:
[1] = test system: Mycobacterium tuberculosis; test: Antitubercular activity against Mycobacterium tuberculosis H37Rv ATCC 27294 at 6.25 ug/ml by MABA; type: functional
[2] = test system: Vero; test: Cytotoxicity against African green monkey Vero cells assessed as reduction in cell viability after 72 hrs by MTT assay; type: cell-based; settings: Chlorocebus sabaeus
[3] = test system: Mycobacterium tuberculosis; test: Antitubercular activity against Mycobacterium tuberculosis H37Rv ATCC 27294 by MABA; type: functional
[4] = Ratio of EC90 for Mycobacterium tuberculosis Erdman infected in mouse bone marrow macrophage monolayers to MIC for Mycobacterium tuberculosis H37Rv ATCC 27294; type: functional
[5] = test system: Mycobacterium tuberculosis; test: Bactericidal activity against Mycobacterium tuberculosis Erdman infected in mouse bone marrow macrophage monolayers assessed as reduction in colony forming units at 4 fold MIC concentration after 7 days; type: functional; settings: Erdman = ATCC 35801, 168 h
[6] = test system: Mycobacterium tuberculosis; test: Bacteriostatic activity against Mycobacterium tuberculosis Erdman infected in mouse bone marrow macrophage monolayers assessed as reduction in colony forming units at 4 fold MIC concentration after 7 days; type: functional; settings: Erdman = ATCC 35801, 168 h
[7] = Selectivity ratio of IC50 for African green monkey Vero cells to MIC for Mycobacterium tuberculosis H37Rv ATCC 27294; type: toxicity; settings: read-out: Selectivity Index

Compound | inhibition at 6.25 µg/mL [1] | IC50 [2] | MIC90 [3] | Ratio [4] | EC99 [5] | EC90 [6] | selectivity ratio [7]
CCCCc1nc(Cl)c(C2NC(=O)NC(C)=C2C(=O)Nc2ccc(OC)cc2)[nH]1 (stereo not given) | 89% | – | – | – | – | – | –
CCCCc1nc(Cl)c(C2NC(=O)NC(C)=C2C(=O)Nc2ccc([N+](=O)[O-])cc2)[nH]1 (stereo not given) | 98% | > 10 µg/mL | 0.78 µg/mL (≈ 1.8 µM) | 0.09 | 0.59 µg/mL | 0.074 µg/mL (≈ 0.171 µM) | > 12.8
CCCCc1nc(Cl)c(C2NC(=O)NC(C)=C2C(=O)Nc2ccccc2F)[nH]1 (stereo not given) | 90% | > 10 µg/mL | 3.12 µg/mL (≈ 7.69 µM) | – | – | – | > 3.12
CCCCc1nc(Cl)c(C2NC(=O)NC(C)=C2C(=O)Nc2cccc(OC)c2)[nH]1 (stereo not given) | 72% | – | – | – | – | – | –
CCCCc1nc(Cl)c(C2NC(=O)NC(C)=C2C(=O)Nc2cccc([N+](=O)[O-])c2)[nH]1 (stereo not given) | 76% | – | – | – | – | – | –
CCCCc1nc(Cl)c(C2NC(=O)NC(C)=C2C(=O)Nc2ccc(Cl)cc2)[nH]1 (stereo not given) | 97% | 9.4 µg/mL (≈ 22.3 µM) | 0.39 µg/mL (≈ 0.923 µM) | 0.26 | 0.69 µg/mL | 0.102 µg/mL (≈ 0.242 µM) | 24.1
CCCCc1nc(Cl)c(C2NC(=O)NC(C)=C2C(=O)Nc2ccc(C)cc2)[nH]1 (stereo not given) | 72% | – | – | – | – | – | –
CCCCc1nc(Cl)c(C2NC(=O)NC(C)=C2C(=O)Nc2ccccc2C)[nH]1 (stereo not given) | 63% | – | – | – | – | – | –
CCCCc1nc(Cl)c(C2NC(=O)NC(C)=C2C(=O)Nc2ccccc2)[nH]1 (stereo not given) | 59% | – | – | – | – | – | –
CCCCc1nc(Cl)c(C2NC(=O)NC(C)=C2C(=O)Nc2cccc(C)c2)[nH]1 (stereo not given) | 65% | – | – | – | – | – | –
CCCCc1nc(Cl)c(C2NC(=O)NC(C)=C2C(=O)Nc2ccccc2OC)[nH]1 (stereo not given) | 79% | – | – | – | – | – | –
CCCCc1nc(Cl)c(C2NC(=O)NC(C)=C2C(=O)Nc2cccc(F)c2)[nH]1 (stereo not given) | 85% | – | – | – | – | – | –
NNC(=O)c1ccncc1 [ISONIAZID] | – | – | 0.03 to 0.06 µg/mL (≈ 0.219 to 0.438 µM) | 1 | 0.42 µg/mL | 0.03 µg/mL (≈ 0.219 µM) | > 40000
CCCCc1nc(Cl)c(C2NC(=O)NC(C)=C2C(=O)Nc2ccccc2[N+](=O)[O-])[nH]1 (stereo not given) | 82% | – | – | – | – | – | –
CCCCc1nc(Cl)c(C2NC(=O)NC(C)=C2C(=O)Nc2ccccc2Cl)[nH]1 (stereo not given) | 92% | 7.6 µg/mL (≈ 18 µM) | 1.56 µg/mL (≈ 3.69 µM) | – | – | – | 4.87
CCCCc1nc(Cl)c(C2NC(=O)NC(C)=C2C(=O)Nc2cccc(Cl)c2)[nH]1 (stereo not given) | 89% | – | – | – | – | – | –
CCCCc1nc(Cl)c(C2NC(=O)NC(C)=C2C(=O)Nc2ccc(F)cc2)[nH]1 (stereo not given) | 99% | > 10 µg/mL | 0.39 µg/mL (≈ 0.961 µM) | 0.1 | 0.54 µg/mL | 0.039 µg/mL (≈ 0.0961 µM) | > 25.6
